Source: the NIST ThermoML archive (doi:10.1016/j.fluid.2018.04.007)

Columns and labels:
[1] = relative permittivity at various frequencies (dimensionless); xn = mol fraction of the nth substance listed; settings: 101 kPa, Liquid, Frequency=1 MHz, Parallel plate capacitor
[2] = refractive index (Na D-line) (dimensionless); xn = mol fraction of the nth substance listed; settings: 101 kPa, Liquid, Standard Abbe refractometry

CCCCCCN [1-hexanamine] + CO
Settings	refractive index, 293.15 K	refractive index, 298.15 K	refractive index, 303.15 K	relative permittivity, 293.15 K	relative permittivity, 298.15 K
[1], x2 = 0	–	–	–	3.964	3.904
[1], x2 = 0.0534	–	–	–	4.367	4.293
[1], x2 = 0.122	–	–	–	4.964	4.87
[1], x2 = 0.1906	–	–	–	5.681	5.564
[1], x2 = 0.3081	–	–	–	7.244	7.085
[1], x2 = 0.395	–	–	–	8.783	8.557
[1], x2 = 0.4982	–	–	–	11.109	10.806
[1], x2 = 0.6035	–	–	–	14.21	13.794
[1], x2 = 0.7016	–	–	–	17.646	17.127
[1], x2 = 0.8002	–	–	–	21.864	21.254
[1], x2 = 0.8485	–	–	–	24.251	23.597
[1], x2 = 0.8984	–	–	–	26.928	26.203
[1], x2 = 0.9496	–	–	–	30.037	29.216
[1], x2 = 0.9834	–	–	–	32.343	31.44
[2], x2 = 0	1.41808	1.41563	1.41321	–	–
[2], x2 = 0.0534	1.41741	1.41499	1.41261	–	–
[2], x2 = 0.0942	1.41681	1.41442	1.41204	–	–
[2], x2 = 0.1871	1.41513	1.41282	1.4104	–	–
[2], x2 = 0.2977	1.4125	1.41017	1.40773	–	–
[2], x2 = 0.4039	1.40889	1.40657	1.40412	–	–
[2], x2 = 0.4917	1.4048	1.40243	1.4	–	–
[2], x2 = 0.5977	1.3979	1.3955	1.39316	–	–
[2], x2 = 0.6997	1.38836	1.38615	1.38372	–	–
[2], x2 = 0.7995	1.37505	1.37296	1.37067	–	–
[2], x2 = 0.8475	1.36685	1.36479	1.36257	–	–
[2], x2 = 0.8978	1.35657	1.3546	1.3524	–	–
[2], x2 = 0.9496	1.34385	1.34182	1.33968	–	–
[2], x2 = 0.9834	1.33399	1.33194	1.3298	–	–

CCCCCCN [1-hexanamine] + CCCCCCCO
Settings	refractive index, 293.15 K	refractive index, 298.15 K	refractive index, 303.15 K	relative permittivity, 293.15 K	relative permittivity, 298.15 K	relative permittivity, 303.15 K
[1], x2 = 0	–	–	–	3.963	3.903	3.848
[1], x2 = 0.0503	–	–	–	4.202	4.133	4.07
[1], x2 = 0.095	–	–	–	4.414	4.339	4.271
[1], x2 = 0.1606	–	–	–	4.731	4.644	4.567
[1], x2 = 0.2073	–	–	–	4.97	4.882	4.796
[1], x2 = 0.3067	–	–	–	5.497	5.392	5.291
[1], x2 = 0.4038	–	–	–	6.064	5.934	5.811
[1], x2 = 0.4991	–	–	–	6.671	6.508	6.358
[1], x2 = 0.6036	–	–	–	7.425	7.224	7.035
[1], x2 = 0.7001	–	–	–	8.239	7.981	7.746
[1], x2 = 0.8007	–	–	–	9.272	8.951	8.651
[1], x2 = 0.8524	–	–	–	9.877	9.521	9.177
[1], x2 = 0.8904	–	–	–	10.381	9.983	9.607
[1], x2 = 0.9402	–	–	–	11.091	10.642	10.222
[2], x2 = 0	1.41807	1.41563	1.41321	–	–	–
[2], x2 = 0.056	1.41916	1.41674	1.41434	–	–	–
[2], x2 = 0.1018	1.41999	1.41761	1.41523	–	–	–
[2], x2 = 0.1463	1.42077	1.4184	1.41604	–	–	–
[2], x2 = 0.2047	1.42171	1.41937	1.41703	–	–	–
[2], x2 = 0.3044	1.4231	1.4208	1.41853	–	–	–
[2], x2 = 0.4059	1.42423	1.42197	1.41974	–	–	–
[2], x2 = 0.5044	1.42503	1.4228	1.42062	–	–	–
[2], x2 = 0.602	1.4255	1.42331	1.42116	–	–	–
[2], x2 = 0.7029	1.42563	1.42351	1.42142	–	–	–
[2], x2 = 0.7979	1.42545	1.42339	1.42136	–	–	–
[2], x2 = 0.8534	1.42521	1.4232	1.4212	–	–	–
[2], x2 = 0.8986	1.42496	1.42299	1.42103	–	–	–
[2], x2 = 0.9472	1.42464	1.42271	1.42079	–	–	–

CCCCCCN [1-hexanamine] + CCCCCO
Settings	refractive index, 293.15 K	refractive index, 298.15 K	refractive index, 303.15 K	relative permittivity, 293.15 K	relative permittivity, 298.15 K	relative permittivity, 303.15 K
[1], x2 = 0	–	–	–	3.967	3.905	3.846
[1], x2 = 0.052	–	–	–	4.248	4.176	4.11
[1], x2 = 0.1079	–	–	–	4.563	4.485	4.408
[1], x2 = 0.1601	–	–	–	4.876	4.785	4.701
[1], x2 = 0.2014	–	–	–	5.146	5.047	4.957
[1], x2 = 0.31	–	–	–	5.924	5.796	5.675
[1], x2 = 0.3982	–	–	–	6.653	6.494	6.348
[1], x2 = 0.5031	–	–	–	7.689	7.486	7.298
[1], x2 = 0.6013	–	–	–	8.827	8.567	8.319
[1], x2 = 0.6916	–	–	–	10.025	9.702	9.397
[1], x2 = 0.7952	–	–	–	11.649	11.246	10.864
[1], x2 = 0.8396	–	–	–	12.419	11.973	11.555
[1], x2 = 0.9006	–	–	–	13.582	13.084	12.61
[1], x2 = 0.9431	–	–	–	14.457	13.913	13.397
[2], x2 = 0	1.41813	1.41563	1.41324	–	–	–
[2], x2 = 0.0472	1.41838	1.41592	1.4136	–	–	–
[2], x2 = 0.1005	1.41862	1.41622	1.41392	–	–	–
[2], x2 = 0.1648	1.41884	1.41649	1.41424	–	–	–
[2], x2 = 0.2022	1.41896	1.4166	1.41438	–	–	–
[2], x2 = 0.3102	1.41908	1.41679	1.41458	–	–	–
[2], x2 = 0.3982	1.41895	1.41671	1.41451	–	–	–
[2], x2 = 0.5002	1.41846	1.41623	1.41407	–	–	–
[2], x2 = 0.6005	1.41756	1.41543	1.41329	–	–	–
[2], x2 = 0.7122	1.41609	1.41403	1.41193	–	–	–
[2], x2 = 0.7963	1.41463	1.41259	1.41054	–	–	–
[2], x2 = 0.8457	1.41364	1.41164	1.40958	–	–	–
[2], x2 = 0.8982	1.41246	1.41048	1.40844	–	–	–
[2], x2 = 0.9362	1.41153	1.40957	1.40754	–	–	–
